≈ marks a conversion by molar mass, not a printed value.
Tests used:
Mus musculus [1] = assay: Antidepressant activity in po dosed Swiss mouse assessed as reversal of reserpine-induced ptosis administered 1 hr prior to reserpine challenge; assay type: functional
[2] = Acute toxicity in po dosed Swiss mouse assessed as mortality after 7 days; assay type: organism-based; conditions: in vivo
Mus musculus [3] = assay: Toxicity in po dosed Swiss mouse assessed as behavioral changes; assay type: organism-based; conditions: in vivo
Mus musculus [4] = assay: Antidepressant activity in po dosed Swiss mouse assessed as reversal of reserpine-induced hypothermia measured over 5 hrs; assay type: functional
Ileum [5] = assay: Antispasmodic activity in guinea pig ileum assessed as inhibition of histamine-induced spasm; assay type: functional; conditions: Cavia porcellus, read-out: ED50 (the source's name)
Ileum [6] = assay: Antispasmodic activity in guinea pig ileum assessed as inhibition of acetylcholine-induced spasm; assay type: functional; conditions: Cavia porcellus, read-out: ED50 (the source's name)

SMILES | MED50 (Mus musculus [1]) [mg/kg] | LD50 at 168 h [2] [mg/kg] | Activity (Mus musculus [3]) | MED50 (Mus musculus [4]) [mg/kg] | EC50 (Ileum [5]) [µg/mL] | EC50 (Ileum [6]) [µg/mL]
Cc1c(CCN(C)C)n2c3c(cccc13)COc1ccccc1-2.Cl | 10 | 310 | Non-toxic | >50 |  | 
CN(C)CCc1cc2cccc3c2n1-c1ccccc1OC3.Cl | 3 | 195 | Non-toxic | 50 | 1 | 10
CN(C)CCc1cc2cccc3c2n1-c1ccccc1CC3 | 2 | 420 | Non-toxic | 5 | 0.2 (≈ 0.689 µM) | 1 (≈ 3.44 µM)
Cl.c1ccc(CN(CCc2cc3cccc4c3n2-c2ccccc2CC4)Cc2ccccc2)cc1 | 50 | 1400 | Non-toxic | > 50 | > 10 | > 10
CNCCc1cc2cccc3c2n1-c1ccccc1CC3.Cl | 1 | 410 | Non-toxic | 2.5 | 0.6 | 4
Cc1c(CCN(C)C)n2c3c(cccc13)CCc1ccccc1-2 | 7.5 | 195 | Non-toxic | >50 | > 10 | > 10
Cc1c(CCN(C)Cc2ccccc2)n2c3c(cccc13)CCc1ccccc1-2.Cl | >50 | > 4000 | Non-toxic | >50 |  | 
CNCCc1c(C)c2cccc3c2n1-c1ccccc1CC3.Cl | 2.5 | 390 | Non-toxic | >50 | 5 | 6
CN(C)Cc1cc2cccc3c2n1-c1ccccc1CC3 | >50 | 210 | Non-toxic | >50 |  | 
CN(C)CCc1c(-c2ccccc2)c2cccc3c2n1-c1ccccc1CC3 | >50 | 1900 | Non-toxic | >50 |  | 
CN(C)Cc1cn2c3c(cccc13)CCc1ccccc1-2.Cl | >50 | 170 | Non-toxic | >50 |  | 
Cc1c(CN(C)C)c2cccc3c2n1-c1ccccc1CC3 | >50 | 450 | Non-toxic | >50 |  | 
CN(C)Cc1c(-c2ccccc2)n2c3c(cccc13)CCc1ccccc1-2 | >50 | 1600 | Non-toxic | >50 |  | 
CN(CCc1cc2cccc3c2n1-c1ccccc1CC3)Cc1ccccc1.Cl [AZIPRAMINE HYDROCHLORIDE] | 3.5 | > 4000 | Non-toxic | 5 | > 5 | > 5
CN(C)CCCN1c2ccccc2CCc2ccccc21 [IMIPRAMINE] | 2.5 |  |  | 2.5 | 0.006 (≈ 0.0214 µM) | 0.3 (≈ 1.07 µM)
